This passage reports melting point results from patent US9926506B2, “Tetrarylmethane ethers as fuel markers” (Dow Global Technologies LLC, priority 2014, dated 2018).

The term melting point denotes the temperature of the solid-liquid transition.

SMILES strings stand for the structures.

`CCCCCCCOc1ccc(C(c2ccccc2)(c2ccccc2)c2ccc(OCCCCCCC)cc2)cc1` [BHeptTPM, Bis(4-(heptyloxy)phenyl)diphenylmethane] came in with a melting point of 103 to 105 °C. As for `CCCCCCOc1ccc(C(c2ccccc2)(c2ccccc2)c2ccc(OCCCCCC)cc2)cc1` [BHexTPM], the figure is 120 to 122 °C. As to `CCCCCCCCOc1ccc(C(c2ccccc2)(c2ccccc2)c2ccc(OCCCCCCCC)cc2)cc1` [BOctTPM, Bis(4-(octyloxy)phenyl)diphenylmethane], the melting point is 84.5 to 86.5 °C. As for `CCCCCOc1ccc(C(c2ccccc2)(c2ccccc2)c2ccc(OCCCCC)cc2)cc1` [BPentTPM, Bis(4-(pentyloxy)phenyl)diphenylmethane], the figure is 110 to 113 °C.
